# According to US10577363B2, “Substituted piperidine compounds” (EPIZYME, INC., priority 2014, dated 2020):
# Molecular target: SMYD3 (Homo sapiens (Human), UniProt Q9H7B4)
# Test: SMYD3 biochemical assay (SPA, 3H-SAM methylation of MEKK2 protein substrate)
# Conditions: average of n = 1 to n = 50; read-out: SMYD3 Biochem IC50
# Summary of the method: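 Full-length native human SMYD3 (E. coli-expressed, tags removed) preincubated with compounds 30 min at room temperature, then reaction started with 3H-SAM and GST-tagged MEKK2 protein in 25 mM Tris-Cl pH 8.0, 1 mM TCEP, 0.005% BSG, 0.005% Tween 20. Quenched with unlabelled SAM (100 uM final); 3H-MEKK2 counted by SPA.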
row,IC50,Compound
1,0.742 µM,"CC1(C(=O)N2CCC(NC(=O)c3cc(C4CC4)on3)CC2)CCNCC1 [compound 760, 5-cyclopropyl-N-(1-(4-methylpiperidine-4-carbonyl)piperidin-4-yl)isoxazole-3-carboxamide]"

# Same assay, conditions: read-out: SMYD3 Biochem IC50 (μM)*
row,Compound,IC50
1,"C[C@H]1C[C@H](NC(=O)c2cc(C3CC3)on2)CCN1C(=O)CC(CN)c1ccccc1 (stereo partly drawn) [compound 339, N-((2S,4R)-1-(4-amino-3-phenylbutanoyl)-2-methylpiperidin-4-yl)-5-cyclopropylisoxazole-3-carboxamide]",4.67 µM
2,"C[C@@H]1C[C@@H](NC(=O)c2cc(C3CC3)on2)CCN1S(=O)(=O)C1CC1 [compound 213, 5-cyclopropyl-N-((2R,4S)-1-(cyclopropylsulfonyl)-2-methylpiperidin-4-yl)isoxazole-3-carboxamide]",> 10 µM
3,"C[C@H]1CC(NC(=O)c2cc(C3CC3)on2)CCN1C(=O)[C@H]1CCC[C@H](N)C1 (stereo partly drawn) [compound 106, N-((2S)-1-((1S,3S)-3-aminocyclohexane-1-carbonyl)-2-methylpiperidin-4-yl)-5-cyclopropylisoxazole-3-carboxamide]",3.52 µM
4,"O=C(NC1CC2CCCC(C1)N2C(=O)CC1CCNCC1)c1cc(C2CC2)on1 (centres unmarked) [compound 125, 5-cyclopropyl-N-(9-(2-(piperidin-4-yl)acetyl)-9-azabicyclo[3.3.1]nonan-3-yl)isoxazole-3-carboxamide]",7.76 µM
5,"N[C@H]1CC[C@H](C(=O)N2CC[C@H](NC(=O)c3cc(C4CC4)on3)C[C@H]2Cc2ccccc2)CC1 [compound 364, N-((2R,4S)-1-((1r,4R)-4-aminocyclohexane-1-carbonyl)-2-benzylpiperidin-4-yl)-5-cyclopropylisoxazole-3-carboxamide]",4.57 µM
6,"C[C@@H]1C[C@H](NC(=O)c2cc(C3CC3)on2)CCN1S(=O)(=O)N1CCCC1 [compound 254, 5-cyclopropyl-N-((2R,4R)-2-methyl-1-(pyrrolidin-1-ylsulfonyl)piperidin-4-yl)isoxazole-3-carboxamide]",4.14 µM
7,"C[C@@H]1C[C@@H](NC(=O)c2cc(C3CC3)on2)CCN1S(=O)(=O)c1ccccc1 [compound 353, 5-cyclopropyl-N-((2R,4S)-2-methyl-1-(phenylsulfonyl)piperidin-4-yl)isoxazole-3-carboxamide]",3.98 µM
8,"C[C@H]1CN(C(=O)CCCN)CC[C@@H]1NC(=O)c1cc(C2CC2)on1 [compound 196, N-((3S,4S)-1-(4-aminobutanoyl)-3-methylpiperidin-4-yl)-5-cyclopropylisoxazole-3-carboxamide]",6.91 µM
9,"CNS(=O)(=O)N1CC[C@@H](NC(=O)c2cc(C3CC3)on2)C[C@H]1C [compound 217, 5-cyclopropyl-N-((2R,4R)-2-methyl-1-(N-methylsulfamoyl)piperidin-4-yl)isoxazole-3-carboxamide]",6.76 µM
10,"C[C@H]1C[C@H](NC(=O)c2cc(C3CC3)on2)CCN1S(=O)(=O)c1ccccc1 [compound 379, 5-cyclopropyl-N-((2S,4R)-2-methyl-1-(phenylsulfonyl)piperidin-4-yl)isoxazole-3-carboxamide]",3.35 µM
11,"C[C@H](N)C(=O)NC[C@@H](Cc1ccc(O)c(I)c1)C(=O)N1CCC(NC(=O)c2cc(C3CC3)on2)CC1 [compound 61, N-(1-((R)-3-((S)-2-aminopropanamido)-2-(4-hydroxy-3-iodobenzyl)propanoyl)piperidin-4-yl)-5-cyclopropylisoxazole-3-carboxamide]",15.3 µM
12,"C[C@H]1CC(NC(=O)c2cc(C3CC3)on2)CCN1C(=O)CN1CCNCC1 (stereo partly drawn) [compound 91, 5-cyclopropyl-N-((2S)-2-methyl-1-(2-(piperazin-1-yl)acetyl)piperidin-4-yl)isoxazole-3-carboxamide]",3.91 µM
13,"C[C@H]1C[C@@H](NC(=O)c2cc(C3CC3)on2)CCN1S(=O)(=O)C1CC1 [compound 276, 5-cyclopropyl-N-((2S,4S)-1-(cyclopropylsulfonyl)-2-methylpiperidin-4-yl)isoxazole-3-carboxamide]",3.63 µM

# The next lines start with the values.
row,IC50,Compound
1,1.24 µM,"C[C@H]1C[C@@H](NC(=O)c2cc(C3CC3)on2)CCN1S(=O)(=O)c1cn(C)cn1 [compound 234, 5-cyclopropyl-N-((2S,4S)-2-methyl-1-((1-methyl-1H-imidazol-4-yl)sulfonyl)piperidin-4-yl)isoxazole-3-carboxamide]"
2,0.624 µM,"C[C@H]1CC(NC(=O)c2cc(C3CC3)on2)CCN1C(=O)CCC1CCNC1 (stereo partly drawn) [compound 176, 5-cyclopropyl-N-((2S)-2-methyl-1-(3-(pyrrolidin-3-yl)propanoyl)piperidin-4-yl)isoxazole-3-carboxamide]"
3,1.88 µM,"C[C@H]1C[C@@H](NC(=O)c2cc(C3CC3)on2)CCN1S(=O)(=O)c1ccc(Cl)nc1 [compound 318, N-((2S,4S)-1-((6-chloropyridin-3-yl)sulfonyl)-2-methylpiperidin-4-yl)-5-cyclopropylisoxazole-3-carboxamide]"
4,3.26 µM,"C[C@H]1C[C@@H](NC(=O)c2cc(C3CC3)on2)CCN1S(=O)(=O)CC(F)(F)F [compound 232, 5-cyclopropyl-N-((2S,4S)-2-methyl-1-((2,2,2-trifluoroethyl)sulfonyl)piperidin-4-yl)isoxazole-3-carboxamide]"
5,0.953 µM,"C[C@@H]1CC(NC(=O)c2cc(C3CC3)on2)CCN1C(=O)CCC1CCNC1 (stereo partly drawn) [compound 180, 5-cyclopropyl-N-((2R)-2-methyl-1-(3-(pyrrolidin-3-yl)propanoyl)piperidin-4-yl)isoxazole-3-carboxamide]"
6,0.13 µM,"NCCCS(=O)(=O)N1CCC(NC(=O)c2cc(C3CC3)on2)CC12CCC2 (centres unmarked) [compound 445, N-(5-((3-aminopropyl)sulfonyl)-5-azaspiro[3.5]nonan-8-yl)-5-cyclopropylisoxazole-3-carboxamide]"
7,0.595 µM,"C[C@@H]1CC(NC(=O)c2cc(C3CC3)on2)CCN1C(=O)CC1CC2CCC(C1)N2 (stereo partly drawn) [compound 129, N-((2R)-1-(2-(8-azabicyclo[3.2.1]octan-3-yl)acetyl)-2-methylpiperidin-4-yl)-5-cyclopropylisoxazole-3-carboxamide]"
8,0.851 µM,"C[C@@H]1CC(NC(=O)c2cc(C3CC3)on2)CCN1C(=O)N1CCC(N)CC1 (stereo partly drawn) [compound 122, N-((2R)-1-(4-aminopiperidine-1-carbonyl)-2-methylpiperidin-4-yl)-5-cyclopropylisoxazole-3-carboxamide]"
9,2.87 µM,"C[C@@H]1CN(C(=O)CCCN)CC[C@@H]1NC(=O)c1cc(C2CC2)on1 [compound 193, N-((3R,4S)-1-(4-aminobutanoyl)-3-methylpiperidin-4-yl)-5-cyclopropylisoxazole-3-carboxamide]"
10,1.69 µM,"C[C@@H]1CN(C(=O)[C@@H](N)Cc2ccc(O)cc2)CCC1NC(=O)c1cc(C2CC2)on1 (stereo partly drawn) [compound 68, N-((3R)-1-(L-tyrosyl)-3-methylpiperidin-4-yl)-5-cyclopropylisoxazole-3-carboxamide]"
11,1.62 µM,"C[C@H]1C[C@H](NC(=O)c2cc(C3CC3)on2)CCN1C(=O)CC(C)(C)CN [compound 311, N-((2S,4R)-1-(4-amino-3,3-dimethylbutanoyl)-2-methylpiperidin-4-yl)-5-cyclopropylisoxazole-3-carboxamide]"
12,2.89 µM,"CNS(=O)(=O)N1CC[C@H](NC(=O)c2cc(C3CC3)on2)C[C@@H]1C [compound 278, 5-cyclopropyl-N-((2S,4S)-2-methyl-1-(N-methylsulfamoyl)piperidin-4-yl)isoxazole-3-carboxamide]"
